In US6369069B1 (Aventis Pharma Deutschland GmbH, priority 1998, dated 2002):

test system: Na^+-dependent Cl^−/HCO3^− exchanger (NCBE); assay: Inhibition of the Na+-dependent Cl−/HCO3− exchanger (NCBE) in human endothelial cells (pHi recovery, BCECF fluorescence, FLIPR); assay type: cell-based; conditions: compound at 10 μM; R(3) to R(7) hydrogen series
Method in brief: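 Fluorescence rise (FLIPR, 2 min, 35 °C) tracked pHi recovery in acid-loaded, BCECF-loaded ECV-304 cells after adding Na+- and HCO3−-containing buffer with 50 μM HOE 642 and graded compound doses. Inhibition was calculated against full-recovery and bicarbonate-free no-recovery controls.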

First: N#CNS(=O)(=O)c1ccccc1-c1ccc(CN(Cc2ccccc2)C(=O)Cc2ccco2)cc1 [Example 389]
Second: N#CNS(=O)(=O)c1ccccc1-c1ccc(CN(Cc2cccc3ccccc23)C(=O)Cc2ccco2)cc1 [Example 391]
The “Residual activity % of the NCBE at 10 μM” value of the first is lower: 51.5% for the first, 55.4% for the second.

Compared with `CC(C(=O)N(Cc1ccc(-c2ccccc2S(=O)(=O)NC#N)cc1)Cc1cccc2ccccc12)c1cccs1` (centres unmarked) [Example 390], `Cc1ccc(C(C)C(=O)N(Cc2ccccc2)Cc2ccc(-c3ccccc3S(=O)(=O)NC#N)cc2)s1` (centres unmarked) [Example 481] is lower in “Residual activity % of the NCBE at 10 μM” value: 89.8% for the first, 62.6% for the second.

Compared with `N#CNS(=O)(=O)c1ccccc1-c1ccc(CN(CC2(c3ccccc3)CCCC2)C(=O)Cc2cccs2)cc1` [Example 392], `N#CNS(=O)(=O)c1ccccc1-c1ccc(CN(CC2(c3ccccc3)CCCC2)C(=O)Cc2ccco2)cc1` [Example 394] is higher in “Residual activity % of the NCBE at 10 μM” value: 55.6% for the first, 72.5% for the second.

Going from `CC(C(=O)N(Cc1ccc(-c2ccccc2S(=O)(=O)NC#N)cc1)CC1(c2ccccc2)CCCC1)c1cccs1` (centres unmarked) [Example 393] to `CC(C(=O)N(Cc1ccc(-c2ccccc2S(=O)(=O)NC#N)cc1)CC1CC(C(=O)N2CCCC2)=NO1)c1cccs1` (centres unmarked) [Example 397], the “Residual activity % of the NCBE at 10 μM” value rises from 16.7% to 44.0%.

First: CCC(CC)(CN(Cc1ccc(-c2ccccc2S(=O)(=O)NC#N)cc1)C(=O)Cc1cccs1)c1ccc(OC)cc1 [Example 395]
Second: N#CNS(=O)(=O)c1ccccc1-c1ccc(CN(CC2CC(C(=O)N3CCCC3)=NO2)C(=O)Cc2cccs2)cc1 (centres unmarked) [Example 396]
The “Residual activity % of the NCBE at 10 μM” value of the first is lower: 50.9% for the first, 53.2% for the second.

same assay, conditions: compound at 10 μM; sub-table with R7 substituent

First: Cc1ccc(-c2ccc(CN(Cc3ccccc3)C(=O)Cc3cccs3)cc2)c(S(=O)(=O)NC#N)c1 [Example 513]
Second: Cc1ccc(-c2ccc(CN(CCc3ccccc3)C(=O)Cc3cccs3)cc2)c(S(=O)(=O)NC#N)c1 [Example 518]
The “Residual activity % of the NCBE at 10 μM” value of the first is lower: 88.6% for the first, 93.5% for the second.

First: Cc1ccc(-c2ccc(CN(Cc3cccc4ccccc34)C(=O)Cc3cccs3)cc2)c(S(=O)(=O)NC#N)c1 [Example 514]
Second: Cc1ccc(-c2ccc(CN(Cc3cccc4ccccc34)C(=O)Cc3ccsc3)cc2)c(S(=O)(=O)NC#N)c1 [Example 538]
The “Residual activity % of the NCBE at 10 μM” value of the first is lower: 74.9% for the first, 80.3% for the second.

First: Cc1ccc(-c2ccc(CN(Cc3ccc4ccccc4c3)C(=O)Cc3cccs3)cc2)c(S(=O)(=O)NC#N)c1 [Example 515]
Second: Cc1ccc(-c2ccc(CN(Cc3ccc4ccccc4c3)C(=O)Cc3ccsc3)cc2)c(S(=O)(=O)NC#N)c1 [Example 539]
The “Residual activity % of the NCBE at 10 μM” value of the first is higher: 68.9% for the first, 65.2% for the second.

Going from `Cc1ccc(-c2ccc(CN(Cc3ccccc3Cl)C(=O)Cc3cccs3)cc2)c(S(=O)(=O)NC#N)c1` [Example 516] to `Cc1ccc(-c2ccc(CN(Cc3ccccc3F)C(=O)Cc3cccs3)cc2)c(S(=O)(=O)NC#N)c1` [Example 519], the “Residual activity % of the NCBE at 10 μM” value falls from 98.7% to 95.6%.

Going from `Cc1ccc(-c2ccc(CN(Cc3cccs3)C(=O)Cc3cccs3)cc2)c(S(=O)(=O)NC#N)c1` [Example 517] to `Cc1ccc(-c2ccc(CN(Cc3cccs3)C(=O)Cc3ccsc3)cc2)c(S(=O)(=O)NC#N)c1` [Example 541], the “Residual activity % of the NCBE at 10 μM” value falls from 86.2% to 52.8%.

Going from `Cc1ccc(-c2ccc(CN(Cc3cccc(Cl)c3Cl)C(=O)Cc3cccs3)cc2)c(S(=O)(=O)NC#N)c1` [Example 520] to `Cc1ccc(-c2ccc(CN(Cc3cccc(Cl)c3Cl)C(=O)Cc3ccsc3)cc2)c(S(=O)(=O)NC#N)c1` [Example 544], the “Residual activity % of the NCBE at 10 μM” value falls from 85.9% to 82.2%.

Going from `Cc1ccc(-c2ccc(CN(Cc3ccccc3)C(=O)C(C)c3cccs3)cc2)c(S(=O)(=O)NC#N)c1` (centres unmarked) [Example 521] to `Cc1ccc(-c2ccc(CN(CCc3ccccc3)C(=O)C(C)c3cccs3)cc2)c(S(=O)(=O)NC#N)c1` (centres unmarked) [Example 526], the “Residual activity % of the NCBE at 10 μM” value falls from 88.2% to 64.9%.

Compared with `Cc1ccc(-c2ccc(CN(Cc3cccc4ccccc34)C(=O)C(C)c3cccs3)cc2)c(S(=O)(=O)NC#N)c1` (centres unmarked) [Example 522], `Cc1ccc(-c2ccc(CN(Cc3ccc4ccccc4c3)C(=O)C(C)c3cccs3)cc2)c(S(=O)(=O)NC#N)c1` (centres unmarked) [Example 523] is higher in “Residual activity % of the NCBE at 10 μM” value: 85.6% for the first, 92.3% for the second.

Going from `Cc1ccc(-c2ccc(CN(Cc3cccs3)C(=O)C(C)c3cccs3)cc2)c(S(=O)(=O)NC#N)c1` (centres unmarked) [Example 525] to `Cc1ccc(-c2ccc(CN(Cc3ccccc3F)C(=O)C(C)c3cccs3)cc2)c(S(=O)(=O)NC#N)c1` (centres unmarked) [Example 527], the “Residual activity % of the NCBE at 10 μM” value falls from 74.0% to 67.5%.

Going from `Cc1ccc(-c2ccc(CN(Cc3cccc(Cl)c3Cl)C(=O)C(C)c3cccs3)cc2)c(S(=O)(=O)NC#N)c1` (centres unmarked) [Example 528] to `Cc1ccc(-c2ccc(CN(Cc3cccc(Cl)c3Cl)C(=O)Cc3ccc(Cl)cc3)cc2)c(S(=O)(=O)NC#N)c1` [Example 536], the “Residual activity % of the NCBE at 10 μM” value rises from 72.0% to 76.3%.

Compared with `Cc1ccc(-c2ccc(CN(Cc3ccccc3)C(=O)Cc3ccc(Cl)cc3)cc2)c(S(=O)(=O)NC#N)c1` [Example 529], `Cc1ccc(-c2ccc(CN(CCc3ccccc3)C(=O)Cc3ccc(Cl)cc3)cc2)c(S(=O)(=O)NC#N)c1` [Example 534] is lower in “Residual activity % of the NCBE at 10 μM” value: 89.4% for the first, 80.0% for the second.

First: Cc1ccc(-c2ccc(CN(Cc3cccc4ccccc34)C(=O)Cc3ccc(Cl)cc3)cc2)c(S(=O)(=O)NC#N)c1 [Example 530]
Second: Cc1ccc(-c2ccc(CN(Cc3ccc4ccccc4c3)C(=O)Cc3ccc(Cl)cc3)cc2)c(S(=O)(=O)NC#N)c1 [Example 531]
The “Residual activity % of the NCBE at 10 μM” value of the first is higher: 89.8% for the first, 75.6% for the second.

First: Cc1ccc(-c2ccc(CN(Cc3ccccc3Cl)C(=O)Cc3ccc(Cl)cc3)cc2)c(S(=O)(=O)NC#N)c1 [Example 532]
Second: Cc1ccc(-c2ccc(CN(Cc3ccccc3F)C(=O)Cc3ccc(Cl)cc3)cc2)c(S(=O)(=O)NC#N)c1 [Example 535]
The “Residual activity % of the NCBE at 10 μM” value of the first is lower: 71.0% for the first, 84.0% for the second.

Compared with `Cc1ccc(-c2ccc(CN(Cc3cccs3)C(=O)Cc3ccc(Cl)cc3)cc2)c(S(=O)(=O)NC#N)c1` [Example 533], `Cc1ccc(-c2ccc(CN(Cc3ccccc3Cl)C(=O)Cc3ccsc3)cc2)c(S(=O)(=O)NC#N)c1` [Example 540] is lower in “Residual activity % of the NCBE at 10 μM” value: 75.5% for the first, 64.6% for the second.

First: Cc1ccc(-c2ccc(CN(Cc3ccccc3)C(=O)Cc3ccsc3)cc2)c(S(=O)(=O)NC#N)c1 [Example 537]
Second: Cc1ccc(-c2ccc(CN(CCc3ccccc3)C(=O)Cc3ccsc3)cc2)c(S(=O)(=O)NC#N)c1 [Example 542]
The “Residual activity % of the NCBE at 10 μM” value of the first is lower: 54.4% for the first, 67.4% for the second.

First: Cc1ccc(-c2ccc(CN(Cc3ccccc3F)C(=O)Cc3ccsc3)cc2)c(S(=O)(=O)NC#N)c1 [Example 543]
Second: Cc1ccc(-c2ccc(CN(Cc3cccc4ccccc34)C(=O)CC3CCCCC3)cc2)c(S(=O)(=O)NC#N)c1 [Example 546]
The “Residual activity % of the NCBE at 10 μM” value of the first is lower: 55.3% for the first, 63.6% for the second.

First: Cc1ccc(-c2ccc(CN(Cc3ccccc3)C(=O)CC3CCCCC3)cc2)c(S(=O)(=O)NC#N)c1 [Example 545]
Second: Cc1ccc(-c2ccc(CN(Cc3ccc4ccccc4c3)C(=O)CC3CCCCC3)cc2)c(S(=O)(=O)NC#N)c1 [Example 547]
The “Residual activity % of the NCBE at 10 μM” value of the first is lower: 70.1% for the first, 76.5% for the second.
